Publication PMC4620497 (Scientific Reports, 2015)
pIC50, pKd: −log10 of the molar value.

How the values were obtained:
ERBB2 = ERBB2 (Homo sapiens, UniProt P04626); set-up: method as in earlier work; conditions: Table S1; cited from earlier work
ERN1 = ERN1 (Homo sapiens, UniProt O75460); set-up: method as in earlier work; conditions: Table S1; cited from earlier work
[1] = molecular target: T1, ABL1(Q252H)-phosphorylated (Homo sapiens, UniProt P00519, Q252H); assay: KINOMEscan panel screen; type: binding; conditions: read-out: Percent Control(%)
T1 construct: purchased DiscoveRx KINOMEscan (Ambit Biosciences)

AKT2 = molecular target: T2, AKT2 (Homo sapiens, UniProt P31751); assay: KINOMEscan panel screen; type: binding; conditions: read-out: Percent Control(%)
T2 construct: purchased DiscoveRx KINOMEscan (Ambit Biosciences)

ALK = molecular target: T3, ALK (Homo sapiens, UniProt Q9UM73); assay: KINOMEscan panel screen; type: binding; conditions: read-out: Percent Control(%)
T3 construct: purchased DiscoveRx KINOMEscan (Ambit Biosciences)

ALK(L1196M) = molecular target: T4, ALK(L1196M) (Homo sapiens, UniProt Q9UM73, L1196M); assay: KINOMEscan panel screen; type: binding; conditions: read-out: Percent Control(%)
T4 construct: purchased DiscoveRx KINOMEscan (Ambit Biosciences)

AURKC = molecular target: T5, AURKC (Homo sapiens, UniProt Q9UQB9); assay: KINOMEscan panel screen; type: binding; conditions: read-out: Percent Control(%)
T5 construct: purchased DiscoveRx KINOMEscan (Ambit Biosciences)
T5 sequence (Q9UQB9 whole entry): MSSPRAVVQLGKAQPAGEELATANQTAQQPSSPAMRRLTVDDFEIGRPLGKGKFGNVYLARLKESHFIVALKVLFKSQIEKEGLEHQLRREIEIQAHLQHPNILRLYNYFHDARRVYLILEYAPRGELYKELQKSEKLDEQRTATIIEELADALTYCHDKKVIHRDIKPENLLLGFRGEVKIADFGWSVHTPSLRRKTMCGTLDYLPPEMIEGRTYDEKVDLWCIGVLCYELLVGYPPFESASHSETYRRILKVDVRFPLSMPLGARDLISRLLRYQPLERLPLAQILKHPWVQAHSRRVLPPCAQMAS

CAMK2B = molecular target: T6, CAMK2B (Homo sapiens, UniProt Q13554); assay: KINOMEscan panel screen; type: binding; conditions: read-out: Percent Control(%)
T6 construct: purchased DiscoveRx KINOMEscan (Ambit Biosciences)

CAMKK1 = molecular target: T7, CAMKK1 (Homo sapiens, UniProt Q8N5S9); assay: KINOMEscan panel screen; type: binding; conditions: read-out: Percent Control(%)
T7 construct: purchased DiscoveRx KINOMEscan (Ambit Biosciences)

CDK11 = molecular target: T8, CDK11 (Homo sapiens, UniProt Q9BWU1); assay: KINOMEscan panel screen; type: binding; conditions: read-out: Percent Control(%)
T8 construct: purchased DiscoveRx KINOMEscan (Ambit Biosciences)

CDKL5 = molecular target: T9, CDKL5 (Homo sapiens, UniProt O76039); assay: KINOMEscan panel screen; type: binding; conditions: read-out: Percent Control(%)
T9 construct: purchased DiscoveRx KINOMEscan (Ambit Biosciences)
T9 sequence (O76039 whole entry): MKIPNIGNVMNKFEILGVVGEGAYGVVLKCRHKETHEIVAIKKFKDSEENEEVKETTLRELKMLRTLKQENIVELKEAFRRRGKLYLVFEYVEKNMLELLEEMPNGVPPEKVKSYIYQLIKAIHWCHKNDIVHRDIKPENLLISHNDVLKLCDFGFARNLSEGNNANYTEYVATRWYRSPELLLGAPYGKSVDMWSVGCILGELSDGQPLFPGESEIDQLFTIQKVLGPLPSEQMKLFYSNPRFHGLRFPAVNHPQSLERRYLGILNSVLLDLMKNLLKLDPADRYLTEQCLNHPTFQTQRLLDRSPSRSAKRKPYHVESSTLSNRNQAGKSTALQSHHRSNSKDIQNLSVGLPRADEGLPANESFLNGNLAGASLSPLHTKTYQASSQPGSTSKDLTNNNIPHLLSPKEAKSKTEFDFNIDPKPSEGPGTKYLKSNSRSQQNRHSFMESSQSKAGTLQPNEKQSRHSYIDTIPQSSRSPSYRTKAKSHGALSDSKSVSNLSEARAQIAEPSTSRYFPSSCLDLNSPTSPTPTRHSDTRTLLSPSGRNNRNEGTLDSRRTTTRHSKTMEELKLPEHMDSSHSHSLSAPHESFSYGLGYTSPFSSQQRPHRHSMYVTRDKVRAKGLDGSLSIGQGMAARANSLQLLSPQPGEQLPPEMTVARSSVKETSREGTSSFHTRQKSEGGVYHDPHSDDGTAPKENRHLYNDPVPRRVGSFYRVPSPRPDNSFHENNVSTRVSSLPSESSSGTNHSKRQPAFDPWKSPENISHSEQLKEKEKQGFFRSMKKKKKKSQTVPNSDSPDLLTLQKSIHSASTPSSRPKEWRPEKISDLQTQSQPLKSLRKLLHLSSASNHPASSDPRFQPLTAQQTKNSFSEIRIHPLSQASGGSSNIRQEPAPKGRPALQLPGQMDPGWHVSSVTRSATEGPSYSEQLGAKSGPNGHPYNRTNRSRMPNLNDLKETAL

DYRK1A = molecular target: T10, DYRK1A (Homo sapiens, UniProt Q13627); assay: KINOMEscan panel screen; type: binding; conditions: read-out: Percent Control(%)
T10 construct: purchased DiscoveRx KINOMEscan (Ambit Biosciences)

EGFR(G719S) = molecular target: T11, EGFR(G719S) (Homo sapiens, UniProt P00533, G719S); assay: KINOMEscan panel screen; type: binding; conditions: read-out: Percent Control(%)
T11 construct: purchased DiscoveRx KINOMEscan (Ambit Biosciences)

GRK7 = molecular target: T12, GRK7 (Homo sapiens, UniProt Q8WTQ7); assay: KINOMEscan panel screen; type: binding; conditions: read-out: Percent Control(%)
T12 construct: purchased DiscoveRx KINOMEscan (Ambit Biosciences)

HPK1 = molecular target: T13, HPK1 (Homo sapiens, UniProt Q92918); assay: KINOMEscan panel screen; type: binding; conditions: read-out: Percent Control(%)
T13 construct: purchased DiscoveRx KINOMEscan (Ambit Biosciences)

[2] = molecular target: T14, JAK3(JH1domain-catalytic) (Homo sapiens, UniProt P52333); assay: KINOMEscan panel screen; type: binding; conditions: read-out: Percent Control(%)
T14 construct: JAK3(JH1domain-catalytic); purchased DiscoveRx KINOMEscan (Ambit Biosciences)
T14 sequence (P52333 822-1111 limits assumed): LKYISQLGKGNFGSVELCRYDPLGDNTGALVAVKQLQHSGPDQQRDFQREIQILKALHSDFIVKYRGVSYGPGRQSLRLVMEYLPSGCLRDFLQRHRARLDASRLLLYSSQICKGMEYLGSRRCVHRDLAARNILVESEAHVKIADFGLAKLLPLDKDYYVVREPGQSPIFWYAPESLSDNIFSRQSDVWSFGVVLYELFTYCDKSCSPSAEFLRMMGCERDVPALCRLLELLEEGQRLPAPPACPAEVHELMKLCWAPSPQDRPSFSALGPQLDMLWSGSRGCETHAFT

MEK5 = molecular target: T15, MEK5 (Homo sapiens, UniProt Q13163); assay: KINOMEscan panel screen; type: binding; conditions: read-out: Percent Control(%)
T15 construct: purchased DiscoveRx KINOMEscan (Ambit Biosciences)

PDGFRA = molecular target: T16, PDGFRA (Homo sapiens, UniProt P16234); assay: KINOMEscan panel screen; type: binding; conditions: read-out: Percent Control(%)
T16 construct: purchased DiscoveRx KINOMEscan (Ambit Biosciences)

PRKCQ = molecular target: T17, PRKCQ (Homo sapiens, UniProt Q04759); assay: KINOMEscan panel screen; type: binding; conditions: read-out: Percent Control(%)
T17 construct: purchased DiscoveRx KINOMEscan (Ambit Biosciences)

RET = molecular target: T18, RET (Homo sapiens, UniProt P07949); assay: KINOMEscan panel screen; type: binding; conditions: read-out: Percent Control(%)
T18 construct: purchased DiscoveRx KINOMEscan (Ambit Biosciences)

[3] = molecular target: T19, RPS6KA5(Kin.Dom.2-C-terminal) (Homo sapiens, UniProt O75582); assay: KINOMEscan panel screen; type: binding; conditions: read-out: Percent Control(%)
T19 construct: RPS6KA5(Kin.Dom.2-C-terminal); purchased DiscoveRx KINOMEscan (Ambit Biosciences)

S6K1 = molecular target: T20, S6K1 (Homo sapiens, UniProt P23443); assay: KINOMEscan panel screen; type: binding; conditions: read-out: Percent Control(%)
T20 construct: purchased DiscoveRx KINOMEscan (Ambit Biosciences)

TIE2 = molecular target: T21, TIE2 (Homo sapiens, UniProt Q02763); assay: KINOMEscan panel screen; type: binding; conditions: read-out: Percent Control(%)
T21 construct: purchased DiscoveRx KINOMEscan (Ambit Biosciences)
T21 sequence (Q02763 23-1124): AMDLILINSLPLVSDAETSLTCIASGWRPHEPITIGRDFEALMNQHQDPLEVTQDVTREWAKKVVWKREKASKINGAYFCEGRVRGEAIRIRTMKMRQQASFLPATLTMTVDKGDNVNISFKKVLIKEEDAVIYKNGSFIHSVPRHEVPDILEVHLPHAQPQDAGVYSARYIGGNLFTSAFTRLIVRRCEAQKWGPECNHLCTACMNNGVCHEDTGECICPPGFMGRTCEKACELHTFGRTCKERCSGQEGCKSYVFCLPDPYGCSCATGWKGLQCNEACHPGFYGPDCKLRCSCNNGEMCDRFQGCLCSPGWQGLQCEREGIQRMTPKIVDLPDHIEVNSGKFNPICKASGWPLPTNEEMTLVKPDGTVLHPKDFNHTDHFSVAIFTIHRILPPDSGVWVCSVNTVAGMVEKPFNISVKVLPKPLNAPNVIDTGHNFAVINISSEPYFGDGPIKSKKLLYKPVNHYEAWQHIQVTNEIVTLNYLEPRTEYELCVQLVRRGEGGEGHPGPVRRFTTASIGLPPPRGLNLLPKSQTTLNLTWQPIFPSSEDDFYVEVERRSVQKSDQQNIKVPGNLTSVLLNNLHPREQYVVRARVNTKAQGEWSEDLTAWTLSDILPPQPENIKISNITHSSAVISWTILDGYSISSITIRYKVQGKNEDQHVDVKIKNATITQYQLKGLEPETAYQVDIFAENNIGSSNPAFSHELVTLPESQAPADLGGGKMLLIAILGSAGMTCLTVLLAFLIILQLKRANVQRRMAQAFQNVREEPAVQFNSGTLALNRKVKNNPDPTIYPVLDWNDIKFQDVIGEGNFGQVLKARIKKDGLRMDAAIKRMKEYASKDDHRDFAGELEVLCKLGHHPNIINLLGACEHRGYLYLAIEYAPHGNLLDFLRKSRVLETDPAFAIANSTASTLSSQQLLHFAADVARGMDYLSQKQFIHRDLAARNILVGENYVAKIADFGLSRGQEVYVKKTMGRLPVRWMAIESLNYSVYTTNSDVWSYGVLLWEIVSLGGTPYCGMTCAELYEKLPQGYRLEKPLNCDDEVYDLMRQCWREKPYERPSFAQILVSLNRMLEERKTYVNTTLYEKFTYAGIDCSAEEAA

ZAP70 = molecular target: T22, ZAP70 (Homo sapiens, UniProt P43403); assay: KINOMEscan panel screen; type: binding; conditions: read-out: Percent Control(%)
T22 construct: purchased DiscoveRx KINOMEscan (Ambit Biosciences)
T22 sequence (P43403 whole entry): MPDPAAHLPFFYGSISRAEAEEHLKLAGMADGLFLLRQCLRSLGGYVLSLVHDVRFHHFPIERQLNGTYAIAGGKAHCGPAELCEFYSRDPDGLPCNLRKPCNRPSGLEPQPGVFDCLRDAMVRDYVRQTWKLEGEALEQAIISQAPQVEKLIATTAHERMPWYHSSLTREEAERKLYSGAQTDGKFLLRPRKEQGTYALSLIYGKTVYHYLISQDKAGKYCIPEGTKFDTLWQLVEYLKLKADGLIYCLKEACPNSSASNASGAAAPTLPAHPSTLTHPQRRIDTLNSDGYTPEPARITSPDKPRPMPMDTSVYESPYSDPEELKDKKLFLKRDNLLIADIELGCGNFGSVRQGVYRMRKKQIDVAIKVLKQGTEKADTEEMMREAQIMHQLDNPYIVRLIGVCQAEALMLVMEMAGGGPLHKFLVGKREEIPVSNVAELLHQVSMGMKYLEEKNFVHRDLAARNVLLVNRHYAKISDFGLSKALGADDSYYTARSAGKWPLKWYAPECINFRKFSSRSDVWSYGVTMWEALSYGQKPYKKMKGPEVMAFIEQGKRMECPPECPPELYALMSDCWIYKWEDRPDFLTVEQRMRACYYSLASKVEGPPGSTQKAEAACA

PLK2 = molecular target: T23, PLK2 (Homo sapiens, UniProt Q9NYY3); assay: KINOMEscan kinase binding assay (Kd)
T23 construct: purchased DiscoveRx KINOMEscan (Ambit Biosciences)
T23 sequence (Q9NYY3 whole entry): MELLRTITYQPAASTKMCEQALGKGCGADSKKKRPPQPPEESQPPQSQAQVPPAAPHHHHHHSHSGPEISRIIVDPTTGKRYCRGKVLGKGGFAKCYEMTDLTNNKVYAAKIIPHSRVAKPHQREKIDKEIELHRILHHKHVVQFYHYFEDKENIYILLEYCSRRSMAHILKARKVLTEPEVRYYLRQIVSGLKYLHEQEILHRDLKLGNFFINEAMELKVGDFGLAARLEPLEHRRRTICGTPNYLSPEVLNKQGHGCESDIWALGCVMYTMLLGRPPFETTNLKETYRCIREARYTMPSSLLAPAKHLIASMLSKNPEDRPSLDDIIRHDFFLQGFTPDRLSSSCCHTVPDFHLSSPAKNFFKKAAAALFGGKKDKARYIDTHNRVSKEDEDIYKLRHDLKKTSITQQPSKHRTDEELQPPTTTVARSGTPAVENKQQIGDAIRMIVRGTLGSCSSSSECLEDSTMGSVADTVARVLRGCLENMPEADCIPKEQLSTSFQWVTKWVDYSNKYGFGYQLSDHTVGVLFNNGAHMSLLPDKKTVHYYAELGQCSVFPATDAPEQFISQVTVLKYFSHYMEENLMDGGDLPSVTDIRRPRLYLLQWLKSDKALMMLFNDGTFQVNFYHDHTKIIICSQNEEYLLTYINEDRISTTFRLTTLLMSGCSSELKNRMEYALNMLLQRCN

[4] = test system: wnt8.1 RNA injected zebrafish embryos; assay: Zebrafish wnt8.1 rescue experiment; type: in vivo; conditions: 10 μM after microinjection of wnt8.1 RNA
normal PBMCs = assay: Long-term culture-initiating cell (LTC-IC) assay; type: cell-based, human; conditions: 10 nM and 50 nM
Procedure: (§1) In addition to the SP cell assay, we also evaluated the effects of SKLB-677 on the long-term culture-initiating (LTC-IC) cells; the long-term culture of LTC-IC cells can be used as surrogate markers of self-renewal capacity. SKLB-677 treated primary AML PBMCs or normal PBMCs were co-cultured with M2-10B4 stromal cells for 6 weeks, and then the colony formation capacity of LTC-IC cells were determined. In this assay, three primary AML PBMC samples and three normal PBMC samples were included, and each sample was conducted in triplicate.
(§2) PBMCs from AML patients (n = 3) and normal people (n = 3) were plated on M2-10B4 feeder cell layers (irradiated with 8000cGy) established in 6-well plates in HLTM medium (Myelocult H5100, […]) freshly supplemented with 10^−6 M hydrocortisone ([…]). Cultures were maintained with 0.1% DMSO or SKLB-677 for […] with weekly half-media changes, before seeding harvested cells into Colony-forming unit assays (cells were seeded in ultra-low attachment 6-well plates (Corning) in triplicate with the complete MethoCult Media ([…]) for 14 days). The assay for each sample was performed in triplicate. The colonies were counted under a microscope, and an obvious and visible cell cluster was considered a colony. The representative images were taken on an Axiovert 200 microscope with an AxiocamMRm camera with 0.30 aperture. Image acquisition software: AxioVisionRell 4.8.
(§3) Figure 4 The in vitro effects of SKLB-677 on leukemia side population (SP) cells and leukemia-initiating cells (LICs). (a) MV4-11 cells were stained with Hoechst 33342 after a treatment of SKLB-677 for 12 h. […] (b) The separated PBMCs were incubated on M2-10B4 stromal cells with SKLB-677 (1 nM and 10 nM for primary AML PBMCs, 10 nM and 50 nM for normal PBMCs) and/or 0.1% DMSO and then half medium replaced weekly for six weeks in long-term culture-initiating cells (LTC-IC) assays. Representative CAFCs (cobble stone area forming cells, the clusters of LTC-IC cells) are shown (left, black arrows).

primary AML PBMCs = assay: Long-term culture-initiating cell (LTC-IC) assay; type: cell-based, human
Procedure: as §1, §2, §3

H1975 = assay: MTT cell viability assay; conditions: Homo sapiens, NCI-H1975, 72 h

ERN1, sequence (O75460 19-977): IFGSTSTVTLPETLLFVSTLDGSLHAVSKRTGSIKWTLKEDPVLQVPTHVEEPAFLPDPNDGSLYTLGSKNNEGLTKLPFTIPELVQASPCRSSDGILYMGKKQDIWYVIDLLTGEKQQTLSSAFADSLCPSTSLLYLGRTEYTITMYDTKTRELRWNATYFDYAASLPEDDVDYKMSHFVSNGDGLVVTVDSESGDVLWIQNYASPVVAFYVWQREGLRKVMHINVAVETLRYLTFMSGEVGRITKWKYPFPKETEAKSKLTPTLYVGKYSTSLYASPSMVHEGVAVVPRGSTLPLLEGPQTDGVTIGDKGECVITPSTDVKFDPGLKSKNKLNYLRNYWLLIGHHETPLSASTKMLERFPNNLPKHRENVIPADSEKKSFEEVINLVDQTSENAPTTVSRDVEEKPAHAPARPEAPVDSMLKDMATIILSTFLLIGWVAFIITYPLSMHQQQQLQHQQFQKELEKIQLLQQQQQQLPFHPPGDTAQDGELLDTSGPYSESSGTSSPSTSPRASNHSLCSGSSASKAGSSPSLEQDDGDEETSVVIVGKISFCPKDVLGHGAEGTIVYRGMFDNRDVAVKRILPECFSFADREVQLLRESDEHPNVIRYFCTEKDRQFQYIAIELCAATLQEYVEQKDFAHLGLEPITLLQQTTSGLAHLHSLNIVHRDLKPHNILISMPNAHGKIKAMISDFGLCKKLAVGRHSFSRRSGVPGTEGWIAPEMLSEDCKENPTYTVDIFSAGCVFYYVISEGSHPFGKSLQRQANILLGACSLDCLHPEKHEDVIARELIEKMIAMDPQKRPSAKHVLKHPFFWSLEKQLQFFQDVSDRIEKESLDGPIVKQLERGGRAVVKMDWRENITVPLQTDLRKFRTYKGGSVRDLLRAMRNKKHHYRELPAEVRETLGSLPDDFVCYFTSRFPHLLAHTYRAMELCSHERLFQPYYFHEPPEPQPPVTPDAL

For `O=C(Nc1ccc(Oc2ncnc3[nH]ncc23)cc1)Nc1ccc(Cl)c(C(F)(F)F)c1` [Compound 1, 1-(4-(1H-pyrazolo[3,4-d]pyrimidin-4-yloxy)phenyl)-3-(4-chloro-3-(trifluoromethyl)phenyl)urea], the pIC50 (ERBB2) is listed as < 5.00 and the pIC50 (ERN1) is listed as < 5.00.
Compound `CC(C)(C)c1cc(NC(=O)Nc2ccc(Oc3ncnc4[nH]ncc34)c(F)c2)no1` [SKLB-677, 1-(4-(1H-pyrazolo[3,4-d]pyrimidin-4-yloxy)-3-fluorophenyl)-3-(5-tert-butylisoxazol-3-yl)urea] has a remaining binding at 10 µM [1] of 21%, a remaining binding at 10 µM (AKT2) of 100% and a remaining binding at 10 µM (ALK) of 4.8%. The remaining binding at 10 µM (ALK(L1196M)) was 71%, the remaining binding at 10 µM (AURKC) was 1.4% and the remaining binding at 10 µM (CAMK2B) was 77%. It also gave a remaining binding at 10 µM (CAMKK1) of 4.4%, a remaining binding at 10 µM (CDK11) of 0.1% and a remaining binding at 10 µM (CDKL5) of 5%. The remaining binding at 10 µM (DYRK1A) was 80%, the remaining binding at 10 µM (EGFR(G719S)) was 47% and the remaining binding at 10 µM (GRK7) was 87%. The remaining binding at 10 µM (HPK1) was 13%, the remaining binding at 10 µM [2] was 14% and the remaining binding at 10 µM (MEK5) was 13%. It also gave a remaining binding at 10 µM (PDGFRA) of 0.25%, a remaining binding at 10 µM (PRKCQ) of 50% and a remaining binding at 10 µM (RET) of 0.05%. It also gave a remaining binding at 10 µM [3] of 100%, a remaining binding at 10 µM (S6K1) of 54% and a remaining binding at 10 µM (TIE2) of 0.2%. For the same compound, the remaining binding at 10 µM (ZAP70) was 100%, the pKd (PLK2) was < 5.00 and the embryos unaffected [4] was 65%. The “embryos with mild or moderate posteriorized phenotypes” value [4] was 35%, the “average LTC-IC colony numbers of three normal PBMC samples” value (normal PBMCs) was “almost not changed” and the “average LTC-IC colony numbers of three samples compared with control” value (primary AML PBMCs; 1 nM) was 30%. The “average LTC-IC colony numbers of three samples compared with control” value (primary AML PBMCs; 10 nM) was 10% and the pIC50 (H1975) was < 5.00.
